{"source": "patent US12559492B2", "about": "“BRAF degraders” (C4 Therapeutics, Inc., priority 2020, dated 2026)", "target": "BRAF^V600E protein (Homo sapiens, UniProt P15056, V600E)", "sequence (P15056 whole entry V600E)": "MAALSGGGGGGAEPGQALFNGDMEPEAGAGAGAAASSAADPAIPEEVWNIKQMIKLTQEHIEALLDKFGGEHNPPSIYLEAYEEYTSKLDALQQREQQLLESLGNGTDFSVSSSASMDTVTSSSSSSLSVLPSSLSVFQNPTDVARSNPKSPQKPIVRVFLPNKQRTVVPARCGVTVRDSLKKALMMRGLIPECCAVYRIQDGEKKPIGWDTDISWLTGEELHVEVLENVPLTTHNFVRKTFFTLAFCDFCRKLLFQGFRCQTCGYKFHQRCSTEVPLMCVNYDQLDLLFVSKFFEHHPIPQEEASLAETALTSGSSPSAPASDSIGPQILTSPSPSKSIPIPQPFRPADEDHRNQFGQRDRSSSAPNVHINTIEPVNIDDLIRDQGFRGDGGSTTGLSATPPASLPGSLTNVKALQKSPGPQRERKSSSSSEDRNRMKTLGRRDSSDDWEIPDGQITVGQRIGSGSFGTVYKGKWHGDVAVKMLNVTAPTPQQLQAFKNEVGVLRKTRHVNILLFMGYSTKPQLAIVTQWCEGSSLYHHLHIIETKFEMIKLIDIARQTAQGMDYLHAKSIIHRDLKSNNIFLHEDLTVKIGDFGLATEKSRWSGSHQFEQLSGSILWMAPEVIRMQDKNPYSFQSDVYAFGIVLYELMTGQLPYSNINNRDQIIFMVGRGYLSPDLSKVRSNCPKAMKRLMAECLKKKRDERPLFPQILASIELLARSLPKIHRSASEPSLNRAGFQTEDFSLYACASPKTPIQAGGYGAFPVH", "assay": "HiBiT cellular BRAF V600E degradation assay", "type": "cell-based", "settings": "24 h incubation; for DC50: A375.10 cells (HiBiT tag knocked in at N-terminal of BRAF V600E), concentration at which 50% of total cellular BRAF V600E is degraded; for Emax: A375.10 cells, Emax = amount of residual protein remaining in the cell after compound treatment, read-out: HiBit 24 h Emax"}
{"smiles": "CCN(C)S(=O)(=O)Nc1ccc(F)c(C(=O)c2c[nH]c3ncc(-c4cnc(N5CCN(C(=O)CC6(O)CCN(c7ccc(N8CCC(=O)NC8=O)cc7F)CC6)CC5)nc4)cc23)c1F", "note": "[Example 167, 5-[2-[4-[2-[1-[4-(2,4-dioxohexahydropyrimidin-1-yl)-2-fluoro-phenyl]-4-hydroxy-4-piperidyl]acetyl]piperazin-1-yl]pyrimidin-5-yl]-3-[3-[[ethyl(methyl)sulfamoyl]amino]-2,6-difluoro-benzoyl]-1H-pyrrolo[2,3-b]pyridine]", "values": [{"measurement": "DC50", "result": 7.05, "unit": "nM"}, {"measurement": "Emax", "result": 9.37, "unit": "%"}]}
{"smiles": "CCN(C)S(=O)(=O)Nc1ccc(F)c(C(=O)c2c[nH]c3ncc(-c4ccc(N5CCN(C(=O)CC6(O)CCN(c7ncc(NC8CCC(=O)NC8=O)cc7F)CC6)CC5)cc4)cc23)c1F", "note": "(stereo not drawn) [Example 90, 5-[4-[4-[2-[1-[5-[(2,6-dioxo-3-piperidyl)amino]-3-fluoro-2-pyridyl]-4-hydroxy-4-piperidyl]acetyl]piperazin-1-yl]phenyl]-3-[3-[[ethyl(methyl)sulfamoyl]amino]-2,6-difluoro-benzoyl]-1H-pyrrolo[2,3-b]pyridine]", "values": [{"measurement": "DC50", "result": 2.13, "unit": "nM"}, {"measurement": "Emax", "result": 7.44, "unit": "%"}]}
{"smiles": "CCN(C)S(=O)(=O)Nc1ccc(F)c(C(=O)c2c[nH]c3ncc(-c4cnc(N5CCC(NC(=O)N6CCC(c7ccc(NC8CCC(=O)NC8=O)cn7)CC6)CC5)nc4)cc23)c1F", "note": "(stereo not drawn) [Example A40, 4-[5-[(2,6-Dioxopiperidin-3-yl)amino]pyridin-2-yl]-N-[1-[5-[3-[3-[[ethyl(methyl)sulfamoyl]amino]-2,6-difluorobenzoyl]-1H-pyrrolo[2,3-b]pyridin-5-yl]pyrimidin-2-yl]piperidin-4-yl]piperidine-1-carboxamide;formic acid]", "values": [{"measurement": "DC50", "result": 8, "unit": "nM"}, {"measurement": "Emax", "result": 17, "unit": "%"}]}
{"smiles": "CCN(C)S(=O)(=O)Nc1ccc(F)c(C(=O)c2c[nH]c3ncc(-c4cnc(N5CC6(CN(C(=O)CN7CCC(c8ccc(NC9CCC(=O)NC9=O)cc8)CC7)C6)C5)nc4)cc23)c1F", "note": "(stereo not drawn) [Example 64, 5-[2-[2-[2-[4-[4-[(2,6-dioxo-3-piperidyl)amino]phenyl]-1-piperidyl]acetyl]-2,6-diazaspiro[3.3]heptan-6-yl]pyrimidin-5-yl]-3-[3-[[ethyl(methyl)sulfamoyl]amino]-2,6-difluoro-benzoyl]-1H-pyrrolo[2,3-b]pyridine]", "values": [{"measurement": "DC50", "result": 7.21, "unit": "nM"}, {"measurement": "Emax", "result": 9.33, "unit": "%"}]}
{"smiles": "CCN(C)S(=O)(=O)Nc1ccc(F)c(C(=O)c2c[nH]c3ncc(-c4ccc(N5CCN(CC(=O)N6CCC(c7ccc(OC8CCC(=O)NC8=O)cc7)CC6)CC5)nc4)cc23)c1F", "note": "(stereo not drawn) [Example A3, 5-[6-[4-[2-[4-[4-(2,6-Dioxopiperidin-3-yl)oxyphenyl]piperidin-1-yl]-2-oxoethyl]piperazin-1-yl]pyridin-3-yl]-3-[3-[[ethyl(methyl)sulfamoyl]amino]-2,6-difluorobenzoyl]-1H-pyrrolo[2,3-b]pyridine]", "values": [{"measurement": "DC50", "result": 46, "unit": "nM"}, {"measurement": "Emax", "result": 19, "unit": "%"}]}
{"smiles": "CCN(C)S(=O)(=O)Nc1ccc(F)c(C(=O)c2c[nH]c3ncc(-c4cnc(N5CCC(CC(=O)N6CCC(c7ccc(NC8CCC(=O)NC8=O)cc7)CC6)CC5)nc4)cc23)c1F", "note": "(stereo not drawn) [Example A112, 5-[2-[4-[2-[4-[4-[(2,6-Dioxopiperidin-3-yl)amino]phenyl]piperidin-1-yl]-2-oxoethyl]piperidin-1-yl]pyrimidin-5-yl]-3-[3-[[ethyl(methyl)sulfamoyl]amino]-2,6-difluorobenzoyl]-1H-pyrrolo[2,3-b]pyridine]", "values": [{"measurement": "DC50", "result": 15, "unit": "nM"}, {"measurement": "Emax", "result": 15, "unit": "%"}]}
{"smiles": "CCC(C)S(=O)(=O)Nc1ccc(F)c(C(=O)c2c[nH]c3ncc(-c4ccc(N5CCN(C(=O)CN6CCC(c7ccc(NC8CCC(=O)NC8=O)cc7)CC6)CC5)nc4)cc23)c1F", "note": "(stereo not drawn) [Example A29, N-[3-[5-[6-[4-[2-[4-[4-[(2,6-Dioxopiperidin-3-yl)amino]phenyl]piperidin-1-yl]acetyl]piperazin-1-yl]pyridin-3-yl]-1H-pyrrolo[2,3-b]pyridine-3-carbonyl]-2,4-difluorophenyl]butane-2-sulfonamide]", "values": [{"measurement": "DC50", "result": 3.05, "unit": "nM"}, {"measurement": "Emax", "result": 10.9, "unit": "%"}]}
{"smiles": "[2H][C@@]1(c2ccc(N3CCC(O)(CC(=O)N4CCN(c5ncc(-c6cnc7[nH]cc(C(=O)c8c(F)ccc(NS(=O)(=O)N(C)CC)c8F)c7c6)cn5)CC4)CC3)c(F)c2)CCC(=O)NC1=O", "note": "(single isomer, unassigned) [Example 158c]", "values": [{"measurement": "DC50", "result": 1.99, "unit": "nM"}, {"measurement": "Emax", "result": 7.84, "unit": "%"}]}
{"smiles": "O=C1CCC(Nc2ccc(N3CCN(CC(=O)N4CCN(c5ccc(-c6cnc7[nH]cc(C(=O)c8c(F)ccc(NS(=O)(=O)N9CC[C@@H](F)C9)c8F)c7c6)cc5)CC4)CC3)cc2)C(=O)N1", "note": "(stereo partly drawn) [Example A74, (3R)—N-[3-[5-[4-[4-[2-[4-[4-[(2,6-Dioxopiperidin-3-yl)amino]phenyl]piperazin-1-yl]acetyl]piperazin-1-yl]phenyl]-1H-pyrrolo[2,3-b]pyridine-3-carbonyl]-2,4-difluorophenyl]-3-fluoropyrrolidine-1-sulfonamide]", "values": [{"measurement": "DC50", "result": 7, "unit": "nM"}, {"measurement": "Emax", "result": 19, "unit": "%"}]}
{"smiles": "CCN(C)S(=O)(=O)Nc1ccc(F)c(C(=O)c2c[nH]c3ncc(-c4ccc(N5CCN(C(=O)CN6CCC(c7ccc(NC8CCC(=O)NC8=O)cc7)C(F)(F)C6)CC5)nc4)cc23)c1F", "note": "(stereo in doubt) [Example 77, 5-[6-[4-[2-[(4R)-4-[4-[(2,6-dioxo-3-piperidyl)amino]phenyl]-3,3-difluoro-1-piperidyl]acetyl]piperazin-1-yl]-3-pyridyl]-3-[3-[[ethyl(methyl)sulfamoyl]amino]-2,6-difluoro-benzoyl]-1H-pyrrolo[2,3-b]pyridine]", "values": [{"measurement": "DC50", "result": 3.49, "unit": "nM"}, {"measurement": "Emax", "result": 9.19, "unit": "%"}]}
{"smiles": "CCN(C)S(=O)(=O)Nc1ccc(F)c(C(=O)c2c[nH]c3ncc(-c4ccc(CN5CCN(C(=O)CN6CCN(c7cccc(NC8CCC(=O)NC8=O)c7)CC6)CC5)cc4)cc23)c1F", "note": "(stereo not drawn) [Example A25, 5-[4-[[4-[2-[4-[3-[(2,6-Dioxopiperidin-3-yl)amino]phenyl]piperazin-1-yl]acetyl]piperazin-1-yl]methyl]phenyl]-3-[3-[[ethyl(methyl)sulfamoyl]amino]-2,6-difluorobenzoyl]-1H-pyrrolo[2,3-b]pyridine; 2,2,2-trifluoroacetic acid]", "values": [{"measurement": "DC50", "result": 101, "unit": "nM"}, {"measurement": "Emax", "result": 18, "unit": "%"}]}
{"smiles": "CCN(C)S(=O)(=O)Nc1ccc(F)c(C(=O)c2c[nH]c3ncc(-c4ccc(CN5CCN(CC(=O)N6CCC(c7ccc(NC8CCC(=O)NC8=O)cc7)CC6)CC5)nc4)cc23)c1F", "note": "(stereo not drawn) [Example A7, 5-[6-[[4-[2-[4-[4-[(2,6-Dioxopiperidin-3-yl)amino]phenyl]piperidin-1-yl]-2-oxoethyl]piperazin-1-yl]methyl]pyridin-3-yl]-3-[3-[[ethyl(methyl)sulfamoyl]amino]-2,6-difluorobenzoyl]-1H-pyrrolo[2,3-b]pyridine;2,2,2-trifluoroacetic acid]", "values": [{"measurement": "DC50", "result": 16.8, "unit": "nM"}, {"measurement": "Emax", "result": 12.9, "unit": "%"}]}
{"smiles": "CCN(C)S(=O)(=O)Nc1cccc(C(=O)c2c[nH]c3ncc(-c4cnc(N5CCN(C(=O)CC6(O)CCN(c7ncc(NC8CCC(=O)NC8=O)cc7F)CC6)CC5)nc4)cc23)c1F", "note": "(stereo not drawn) [Example 104, 5-[2-[4-[2-[1-[5-[(2,6-dioxo-3-piperidyl)amino]-3-fluoro-2-pyridyl]-4-hydroxy-4-piperidyl]acetyl]piperazin-1-yl]pyrimidin-5-yl]-3-[3-[[ethyl(methyl)sulfamoyl]amino]-2-fluoro-benzoyl]-1H-pyrrolo[2,3-b]pyridine]", "values": [{"measurement": "DC50", "result": 3.37, "unit": "nM"}, {"measurement": "Emax", "result": 10.8, "unit": "%"}]}
{"smiles": "O=C1CCC(Nc2ccc(C3CCN(CC(=O)N4CCN(c5ccc(-c6cnc7[nH]cc(C(=O)c8c(F)ccc(NS(=O)(=O)C9CCCC9)c8F)c7c6)cc5)CC4)CC3)cc2)C(=O)N1", "note": "(stereo not drawn) [Example A52, N-[3-[5-[4-[4-[2-[4-[4-[(2,6-Dioxopiperidin-3-yl)amino]phenyl]piperidin-1-yl]acetyl]piperazin-1-yl]phenyl]-1H-pyrrolo[2,3-b]pyridine-3-carbonyl]-2,4-difluorophenyl]cyclopentanesulfonamide]", "values": [{"measurement": "DC50", "result": 10, "unit": "nM"}, {"measurement": "Emax", "result": 12, "unit": "%"}]}
{"smiles": "CCN(C)S(=O)(=O)Nc1ccc(F)c(C(=O)c2c[nH]c3ncc(-c4ccc(CN5CCN(C(=O)CN6CCC(c7ccc(NC8CCC(=O)NC8=O)cc7)CC6)CC5)cc4)cc23)c1F", "note": "(stereo not drawn) [Example A23, 5-[4-[[4-[2-[4-[4-[(2,6-Dioxopiperidin-3-yl)amino]phenyl]piperidin-1-yl]acetyl]piperazin-1-yl]methyl]phenyl]-3-[3-[[ethyl(methyl)sulfamoyl]amino]-2,6-difluorobenzoyl]-1H-pyrrolo[2,3-b]pyridine]", "values": [{"measurement": "DC50", "result": 19, "unit": "nM"}, {"measurement": "Emax", "result": 13, "unit": "%"}]}
{"smiles": "CCN(C)S(=O)(=O)Nc1ccc(F)c(C(=O)c2c[nH]c3ncc(C#CC4CCN(C(=O)CN5CCC(c6ccc(NC7CCC(=O)NC7=O)cc6)CC5)CC4)cc23)c1F", "note": "(stereo not drawn) [Example A43, 5-[2-[1-[2-[4-[4-[(2,6-Dioxopiperidin-3-yl)amino]phenyl]piperidin-1-yl]acetyl]piperidin-4-yl]ethynyl]-3-[3-[[ethyl(methyl)sulfamoyl]amino]-2,6-difluorobenzoyl]-1H-pyrrolo[2,3-b]pyridine]", "values": [{"measurement": "DC50", "result": 57, "unit": "nM"}, {"measurement": "Emax", "result": 32, "unit": "%"}]}
{"smiles": "CCN(C)S(=O)(=O)Nc1ccc(F)c(C(=O)c2c[nH]c3ncc(-c4cnc(N5CCC(C(=O)N6CCC(c7ccc(NC8CCC(=O)NC8=O)cc7)CC6)CC5)nc4)cc23)c1F", "note": "(stereo not drawn) [Example 127, 5-[2-[4-[4-[4-[(2,6-dioxo-3-piperidyl)amino]phenyl]piperidine-1-carbonyl]-1-piperidyl]pyrimidin-5-yl]-3-[3-[[ethyl(methyl)sulfamoyl]amino]-2,6-difluoro-benzoyl]-1H-pyrrolo[2,3-b]pyridine]", "values": [{"measurement": "DC50", "result": 13.2, "unit": "nM"}, {"measurement": "Emax", "result": 7.62, "unit": "%"}]}
{"smiles": "CCN(C)S(=O)(=O)Nc1ccc(F)c(C(=O)c2c[nH]c3ncc(-c4cnc(N5CC6(CC(N7CCC(c8ccc(NC9CCC(=O)NC9=O)cc8)CC7)C6)C5)nc4)cc23)c1F", "note": "(stereo not drawn) [Example 151, 5-[2-[6-[4-[4-[(2,6-dioxo-3-piperidyl)amino]phenyl]-1-piperidyl]-2-azaspiro[3.3]heptan-2-yl]pyrimidin-5-yl]-3-[3-[[ethyl(methyl)sulfamoyl]amino]-2,6-difluoro-benzoyl]-1H-pyrrolo[2,3-b]pyridine]", "values": [{"measurement": "DC50", "result": 1.85, "unit": "nM"}, {"measurement": "Emax", "result": 6.38, "unit": "%"}]}
